Where “and” joins values, the source holds several entries; their conditions need not be identical. Equal entries are not always repeated. Where two headings read alike, the source gives them in different places.
What was measured:
[1] = system: T. cruzi amastigotes and trypomastigotes; assay: T. cruzi infection assay in L929 cells (beta-galactosidase Tulahuen strain); assay type: cell-based, Trypanosoma cruzi; details: for selectivity index (SI), CC50/EC50: L929 CC50 / T. cruzi EC50; for EC50 / EC50, growth of T. cruzi amastigotes and trypomastigotes: mean ± SD; for EC50: read-out: EC50, growth of T. cruzi amastigotes and trypomastigotes
in vitro = details: mouse
[2] = system: newly transformed schistosomula (NTS); assay: Phenotypic screening on newly transformed schistosomula (NTS); assay type: cell-based, Schistosoma mansoni; details: for IC50: Schistosoma mansoni, 72 h, read-out: IC50, viability of NTS
[3] = system: L. donovani promastigotes; assay: Resazurin reduction assay, L. donovani promastigotes; assay type: cell-based; details: Leishmania donovani, read-out: percentage of inhibition, L. donovani promastigotes
[4] = system: L. donovani axenic amastigotes; assay: Resazurin reduction assay, L. donovani axenic amastigotes; assay type: cell-based; details: Leishmania donovani, read-out: percentage of inhibition, L. donovani axenic amastigotes
[5] = system: human retinal pigment epithelial (RPE) cells; assay: MTT viability assay in RPE cells; assay type: cell-based; details: Homo sapiens, RPE, 48 h, read-out: IC50 in RPE cells (cell viability)
[6] = MTT viability assay in RPE cells; assay type: cell-based, human; details: human, retinal pigment epithelial (RPE) cells, read-out: percentage of RPE cell viability, 48 h
S. mansoni adult worms = assay: Phenotypic screening on S. mansoni adult worms; assay type: cell-based, Schistosoma mansoni; details: 72 h
[7] = system: L. amazonensis promastigotes; assay: Resazurin reduction assay, L. amazonensis promastigotes; assay type: cell-based; details: Leishmania amazonensis, read-out: percentage of inhibition, L. amazonensis promastigotes
[8] = system: L. amazonensis amastigotes in primary mouse macrophages; details: 10 μM, 3 days, toxic = toxic for macrophages
[9] = Trypanosoma cruzi, L929, 96 h, infected L929 cells, 96 h
[10] = noninfected L929 fibroblast cells
[11] = 10 μM, infected L929 cells, 96 h, toxic = L929 death
[12] = 20 μM, infected L929 cells, 96 h, toxic = L929 death
[13] = 40 μM, infected L929 cells, 96 h, toxic = L929 death
[14] = 80 μM, infected L929 cells, 96 h, toxic = L929 death
[15] = 160 μM, infected L929 cells, 96 h, toxic = L929 death
[16] = Trypanosoma cruzi, infected L929 cells, 96 h, read-out: percentage of T. cruzi growth inhibition
[17] = Trypanosoma cruzi, 2.5 μM, infected L929 cells, 96 h, toxic = L929 death, read-out: percentage of T. cruzi growth inhibition
[18] = Trypanosoma cruzi, 5 μM, infected L929 cells, 96 h, toxic = L929 death, read-out: percentage of T. cruzi growth inhibition
[19] = Trypanosoma cruzi, 10 μM, infected L929 cells, 96 h, toxic = L929 death, read-out: percentage of T. cruzi growth inhibition
[20] = Trypanosoma cruzi, 20 μM, infected L929 cells, 96 h, toxic = L929 death, read-out: percentage of T. cruzi growth inhibition

O=C(Cn1ccnc1[N+](=O)[O-])NCc1ccccc1 [BZN, benznidazole, reference compound]
selectivity index (SI), CC50/EC50 [1]: 625 | EC50 [1, 9]: 3.8 µM

O=C(/C=C/c1ccc(NC(=O)Cc2cccc3ccccc23)cn1)NO [Compound 5]
CC50 at 96 h (in vitro; [10]): 1.25 µM | percentage of T. cruzi growth inhibition ([1]; 2.5 μM, infected L929 cells, 96 h, toxic = L929 death): toxic | percentage of T. cruzi growth inhibition ([1]; 5 μM, infected L929 cells, 96 h, toxic = L929 death): toxic | percentage of T. cruzi growth inhibition [1, 11]: toxic | percentage of T. cruzi growth inhibition [1, 12]: toxic | percentage of T. cruzi growth inhibition [1, 13]: toxic | percentage of T. cruzi growth inhibition [1, 14]: toxic | percentage of T. cruzi growth inhibition [1, 15]: toxic | inhibition at 1.25 µM [1, 16]: 0% | EC50, growth of T. cruzi amastigotes and trypomastigotes ([1]; infected L929 cells, 96 h): inactive | percentage of NTS activity, 72 h ([2]; 10 μM): 31.0 ± 0.0% | percentage of NTS activity, 72 h ([2]; 20 μM): 30.8 ± 0.0% | IC50 [2]: > 20 µM

O=C(/C=C/c1ccc(Cc2nnc(Cc3cccc4ccccc34)o2)cc1)NO [Compound 7]
CC50 at 96 h (in vitro; [10]): 5 µM | percentage of T. cruzi growth inhibition [1, 11]: toxic | percentage of T. cruzi growth inhibition [1, 12]: toxic | percentage of T. cruzi growth inhibition [1, 13]: toxic | percentage of T. cruzi growth inhibition [1, 14]: toxic | percentage of T. cruzi growth inhibition [1, 15]: toxic | inhibition at 1.25 µM [1, 16]: 0% | inhibition at 2.5 µM [1, 17]: 0% | inhibition at 5 µM [1, 18]: 21% | EC50, growth of T. cruzi amastigotes and trypomastigotes ([1]; infected L929 cells, 96 h): inactive | percentage of NTS activity, 72 h ([2]; 10 μM): 38.0 ± 1.2% | percentage of NTS activity, 72 h ([2]; 20 μM): 39.4 ± 1.0% | IC50 [2]: > 20 µM

CC1=C(/C=C/C(C)=C/C=C/C(C)=C/C(=O)Nc2ccccc2N)C(C)(C)CCC1 [Compound 8]
CC50 at 96 h (in vitro; [10]): 80 µM | inhibition at 0.8 µM ([3]; 0.8 μM): 2.3 ± 1.4% | inhibition at 20 µM ([3]; 20 μM): 6.3 ± 1.7% | percentage of T. cruzi growth inhibition [1, 15]: toxic | selectivity index (SI), CC50/EC50 [1]: 5.7 | EC50 [1, 9]: 13.9 µM | inhibition at 1.25 µM [1, 16]: 0% | inhibition at 2.5 µM [1, 17]: 0% | inhibition at 5 µM [1, 18]: 7% | inhibition at 10 µM [1, 19]: 32% | inhibition at 20 µM [1, 20]: 78% | inhibition at 40 µM ([1]; Trypanosoma cruzi, 40 μM, infected L929 cells, 96 h, toxic = L929 death, read-out: percentage of T. cruzi growth inhibition): 76% | inhibition at 80 µM ([1]; Trypanosoma cruzi, 80 μM, infected L929 cells, 96 h, toxic = L929 death, read-out: percentage of T. cruzi growth inhibition): 88% | EC50 ([1]; infected L929 cells, 96 h): 14 ± 3.4 µM | inhibition at 0.8 µM [4]: 4.3 ± 1.1% | inhibition at 4 µM [4]: 5.8 ± 2.5% | inhibition at 20 µM [4]: 41.8 ± 1.4% | percentage of NTS activity, 72 h ([2]; 10 μM): 37.9 ± 0.0% | percentage of NTS activity, 72 h ([2]; 20 μM): 70% and 71.1 ± 1.0% | IC50 [2]: 12.8 µM | IC50 [5]: > 50 µM | viability at 48 h, 1 µM [6]: 95.3 ± 28.7% | viability at 48 h, 5 µM [6]: 115 ± 9.4% | viability at 48 h, 10 µM [6]: 90.4 ± 16.7% | viability at 48 h, 25 µM [6]: 98.8 ± 4.6% | viability at 48 h, 50 µM [6]: 72 ± 5.8% | percentage of activity (death induction), S. mansoni adult worms (S. mansoni adult worms; 10 μM): 36.1 ± 2.8% | percentage of activity (death induction), S. mansoni adult worms (S. mansoni adult worms; 20 μM): 52.8 ± 2.8% | inhibition at 0.8 µM ([7]; 0.8 μM): 8.1 ± 2.1% | inhibition at 4 µM ([7]; 4 μM): 8.3 ± 3.4%

Nc1ccccc1NC(=O)c1ccc(CNC(=O)OCc2cccnc2)cc1 [Compound 9, entinostat, reference compound]
CC50 at 96 h (in vitro): 20 µM | HCA outcome against intramacrophagic L. amazonensis amastigotes [8]: toxic | percentage of T. cruzi growth inhibition [1, 13]: toxic | percentage of T. cruzi growth inhibition [1, 14]: toxic | percentage of T. cruzi growth inhibition [1, 15]: toxic | inhibition at 1.25 µM [1, 16]: 0% | inhibition at 2.5 µM [1, 17]: 0% | inhibition at 5 µM [1, 18]: 0% | inhibition at 10 µM [1, 19]: 0% | inhibition at 20 µM [1, 20]: 0% | EC50, growth of T. cruzi amastigotes and trypomastigotes ([1]; infected L929 cells, 96 h): inactive | inhibition at 0.8 µM [4]: 6.7 ± 3.8% | inhibition at 4 µM [4]: 2.9 ± 10.1% | inhibition at 20 µM [4]: 28.9 ± 0.9% | percentage of NTS activity, 72 h ([2]; 10 μM): 40.0 ± 2.0% | percentage of NTS activity, 72 h ([2]; 20 μM): 42.3 ± 0.0% | IC50 [2]: > 20 µM

Cn1c(/C=C/C(=O)c2ccc(NC(=O)OC(C)(C)C)cc2)ccc1C(=O)NO [Compound 17]
percentage of NTS activity, 72 h ([2]; 1 μM): 28.0 ± 0.0% | percentage of NTS activity, 72 h ([2]; 10 μM): 100.0 ± 0.0% | percentage of NTS activity, 72 h ([2]; 20 μM): 100.0 ± 0.0% | IC50 [2]: 1.23 µM | IC50 [5]: > 50 µM | viability at 48 h, 1 µM [6]: 74.2 ± 5.2% | viability at 48 h, 5 µM [6]: 91.8 ± 11.5% | viability at 48 h, 10 µM [6]: 102 ± 15.2% | viability at 48 h, 25 µM [6]: 91.9 ± 4.5% | viability at 48 h, 50 µM [6]: 77.4 ± 2.3% | percentage of activity (death induction), S. mansoni adult worms (S. mansoni adult worms; 20 μM): 58.6 ± 0%

CC(C)(C)OC(=O)Nc1ccc(C(=O)/C=C/c2ccc(C(=O)NO)cc2)cc1 [Compound 18]
percentage of NTS activity, 72 h ([2]; 1 μM): 26.0 ± 1.0% | percentage of NTS activity, 72 h ([2]; 10 μM): 100.0 ± 0.0% | percentage of NTS activity, 72 h ([2]; 20 μM): 100.0 ± 0.0% | IC50 [2]: 1.26 µM | IC50 [5]: 24.7 µM | viability at 48 h, 1 µM [6]: 67.9 ± 4.2% | viability at 48 h, 5 µM [6]: 73.8 ± 3.3% | viability at 48 h, 10 µM [6]: 71 ± 7.8% | viability at 48 h, 25 µM [6]: 50.3 ± 7.4% | viability at 48 h, 50 µM [6]: 43.1 ± 0.1% | percentage of activity (death induction), S. mansoni adult worms (S. mansoni adult worms; 10 μM): 43.1 ± 2.0% | percentage of activity (death induction), S. mansoni adult worms (S. mansoni adult worms; 20 μM): 56.0 ± 7.8%

CC(C)(C)OC(=O)Nc1cccc(C(=O)/C=C/c2ccc(C(=O)NO)cc2)c1 [Compound 19]
percentage of NTS activity, 72 h ([2]; 1 μM): 24.0 ± 0.0% | percentage of NTS activity, 72 h ([2]; 10 μM): 100.0 ± 0.0% | percentage of NTS activity, 72 h ([2]; 20 μM): 100.0 ± 0.0% | IC50 [2]: 1.29 µM | IC50 [5]: 48.7 µM | viability at 48 h, 1 µM [6]: 75.6 ± 16.9% | viability at 48 h, 5 µM [6]: 80.5 ± 13.7% | viability at 48 h, 10 µM [6]: 82 ± 12.3% | viability at 48 h, 25 µM [6]: 68.6 ± 1.3% | viability at 48 h, 50 µM [6]: 52.8 ± 16.1% | percentage of activity (death induction), S. mansoni adult worms (S. mansoni adult worms; 20 μM): 58.6 ± 0%

CC(C)(C)OC(=O)Nc1ccc(C(=O)/C=C/c2ccc(/C=C/C(=O)NO)cc2)cc1 [Compound 20]
percentage of NTS activity, 72 h ([2]; 1 μM): 22.0 ± 1.0% | percentage of NTS activity, 72 h ([2]; 10 μM): 100.0 ± 0.0% | percentage of NTS activity, 72 h ([2]; 20 μM): 100.0 ± 0.0% | IC50 [2]: 1.32 µM | IC50 [5]: 27.2 µM | viability at 48 h, 1 µM [6]: 80 ± 11% | viability at 48 h, 5 µM [6]: 71.6 ± 9.2% | viability at 48 h, 10 µM [6]: 63 ± 6% | viability at 48 h, 25 µM [6]: 59.5 ± 2.4% | viability at 48 h, 50 µM [6]: 45.6 ± 4.8% | percentage of activity (death induction), S. mansoni adult worms (S. mansoni adult worms; 10 μM): 31.3 ± 2.0% | percentage of activity (death induction), S. mansoni adult worms (S. mansoni adult worms; 20 μM): 40.5 ± 2.6%

Source: PMC9274761, “Effects of Structurally Different HDAC Inhibitors against Trypanosoma cruzi, Leishmania, and Schistosoma mansoni” (ACS Infectious Diseases, 2022)
